The values that follow come from patent publication US6528656B1, “Linear or cyclic aminophosphonates as pH markers in phosphorus 31 NMR spectroscopy” (Centre National de la Recherche Scientifique (CNRS), priority 1998, dated 2003).

In one data set the test system is tumour cell line. The following applies: cited from earlier work.
The subject of data set [1] is myocardial or liver cells. Put plainly: toxicity, cell penetration and 31P NMR pH measurement in myocardial or liver cells. The format is cell-based. The text has this:
The compounds of formulae (II.1) and (II.2) are on the whole particuarly non-toxic and penetrate into myocardial or liver cells (in sufficient amount to be observed but in a sufficiently small amount to remain non-toxic), thus allowing a measurement of the pH values of intracellular and extracellular media.

Data set [2] can be described thus: physchem. Format: physicochemical. The conditions noted are these: 37° C., 5 mM solution in phosphate buffer, 400 MHz NMR, from titration curve.
Procedure: The results obtained allowed titration curves to be plotted.
Each measurement was taken at 37° C. using a 5 mM solution of the test compound in a phosphate buffer on a 400 MHz NMR spectroscopy machine.
The variation in the phosphorus-31 chemical shift was studied as a function of the pH: the measurements were taken at 22° C., or 37° C. respectively, on a 400 MHz NMR machine using 5 mM solutions of the test compound in a phosphate buffer.
A short description of data set [3]: physchem.

Read-outs that look alike come from different tables or passages of the source.

`O=CC[C@@H](O)[C@H](O)[C@H](O)COP(=O)(O)O` [2-deoxyglucose 6-phosphate, 2-Deoxyglucose 6-phosphate]: in the data set with tumour cell line, the metabolism result is listed as “not metabolized” and the toxicity entry is “toxic to the cell”.

For the molecule `CCOP(=O)(OCC)C1(C)CCCN1` (centres unmarked) [Compound 1, 2-methyl-2-diethoxyphosphorylpyrrolidine], the “variations in the phosphorus chemical shift as a function of intracellular acidosis versus intracellular Pi” value in data set [1] (in the course of ischaemia, cytosolic medium) is recorded as “fully correlated”. In addition, the “pH measurements in liver compartments (extracellular, cytosolic, intravesicular medium)” value in data set [1] (liver, very acidic (pH 5) vesicles) is reported as “allows three measurements at the same time”. For the molecule `CCOP(=O)(OCC)C1(P(=O)(OCC)OCC)CCCN1` [Compound 2, 2,2-bis(diethoxyphosphoryl) pyrrolidine], the pKa was 3.47 in “physchem [2]” and 3.5 in the data set “physchem [3]”. As to `CC(C)OP(=O)(OC(C)C)C1(P(=O)(OC(C)C)OC(C)C)CCCN1` [Compound 3, 2,2-bis(diisopropoxyphosphoryl) pyrrolidine], in the data set “physchem [2]”, the pKa was determined as 3.9. In the data set “physchem [2]”, `CCOP(=O)(OCC)C1(C)CCC(C)(P(=O)(OCC)OCC)N1` (centres unmarked) [Compound 4, 2,5-bis(diethoxyphosphoryl)-2,5-dimethylpyrrolidine] came in with a pKa of 2.45.

In general, pKa refers to the negative logarithm of the acid dissociation constant.
